The subject of this experiment is BDF1 mice, L1210 leukemia sc, survival T/C. Description: NCI In Vivo Anticancer Drug Screen. Data for tumor model L1210 Leukemia (subcutaneous) in B6D2F1 (BDF1) mice. The conditions noted are these: higher = longer survival. The gist of the method:
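Antitumor activity is assessed in mice with transplanted tumors by comparing the treated group (T) with the vehicle control group (C).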

Setting [1] is: endpoint: median survival time, dose: 108.0 mg/kg/injection, schedule: Q01DX Z (sc), vehicle: methylcellulose (MC).
[2] abbreviates: endpoint: median survival time, dose: 180.0 mg/kg/injection, schedule: Q01DX Z (sc), vehicle: methylcellulose (MC).
Setting [3] is: endpoint: median survival time, dose: 65.0 mg/kg/injection, schedule: Q01DX Z (sc), vehicle: saline.
The mark [4] stands for this setting: endpoint: median survival time, dose: 108.0 mg/kg/injection, schedule: Q01DX Z (sc), vehicle: saline.
[5] abbreviates: endpoint: median survival time, dose: 180.0 mg/kg/injection, schedule: Q01DX Z (sc), vehicle: saline.

“And” between values parts separate entries of the source, which are not always exact repeats. Identical values can stand only once. Toxic doses and inconclusive results are not listed.

Consider 9 compounds from PubChem BioAssay AID250 (DTP/NCI, 2004).

In the case of `O=NN(CCCl)C(=O)NC1CCCCC1`, the T/C was 123 % of control (endpoint: median survival time, dose: 2.5 mg/kg/injection, schedule: Q01DX009 (sc), vehicle: other); 110 % of control (endpoint: median survival time, dose: 3.0 mg/kg/injection, schedule: Q01DX Z (sc), vehicle: carboxymethylcellulose (CMC)); 158 % of control (endpoint: median survival time, dose: 5.0 mg/kg/injection, schedule: Q01DX009 (sc), vehicle: other); 221 % of control (endpoint: median survival time, dose: 5.0 mg/kg/injection, schedule: Q01DX Z (oral), vehicle: carboxymethylcellulose (CMC)); 120 % of control (endpoint: median survival time, dose: 5.0 mg/kg/injection, schedule: Q01DX Z (sc), vehicle: carboxymethylcellulose (CMC)); 152 % of control (endpoint: median survival time, dose: 8.0 mg/kg/injection, schedule: Q01DX009 (ip), vehicle: other). Further, the T/C reads like this: (endpoint: median survival time, dose: 8.4 mg/kg/injection, schedule: Q01DX Z (oral), vehicle: carboxymethylcellulose (CMC)) 447 % of control; (endpoint: median survival time, dose: 8.4 mg/kg/injection, schedule: Q01DX Z (sc), vehicle: carboxymethylcellulose (CMC)) 315 % of control and 421 % of control; (endpoint: median survival time, dose: 8.4 mg/kg/injection, schedule: Q07DX Z (sc), vehicle: carboxymethylcellulose (CMC)) 100 % of control; (endpoint: median survival time, dose: 10.0 mg/kg/injection, schedule: Q01DX009 (sc), vehicle: other) 160 % of control; (endpoint: median survival time, dose: 14.0 mg/kg/injection, schedule: Q01DX001 (sc), vehicle: carboxymethylcellulose (CMC)) 120 % of control; (endpoint: median survival time, dose: 14.0 mg/kg/injection, schedule: Q01DX Z (oral), vehicle: carboxymethylcellulose (CMC)) 410 % of control. Also, the T/C by setting is: (endpoint: median survival time, dose: 14.0 mg/kg/injection, schedule: Q01DX Z (sc), vehicle: carboxymethylcellulose (CMC)) 400 % of control and 560 % of control; (endpoint: median survival time, dose: 14.0 mg/kg/injection, schedule: Q07DX Z (sc), vehicle: carboxymethylcellulose (CMC)) 165 % of control; (endpoint: median survival time, dose: 20.0 mg/kg/injection, schedule: Q01DX009 (sc), vehicle: other) 163 % of control; (endpoint: median survival time, dose: 23.0 mg/kg/injection, schedule: Q01DX001 (sc), vehicle: carboxymethylcellulose (CMC)) 150 % of control; (endpoint: median survival time, dose: 23.0 mg/kg/injection, schedule: Q01DX Z (oral), vehicle: carboxymethylcellulose (CMC)) 215 % of control; (endpoint: median survival time, dose: 23.0 mg/kg/injection, schedule: Q01DX Z (sc), vehicle: carboxymethylcellulose (CMC)) 265 % of control and 273 % of control. Besides, the T/C reads like this: (endpoint: median survival time, dose: 23.0 mg/kg/injection, schedule: Q07DX Z (sc), vehicle: carboxymethylcellulose (CMC)) 170 % of control; (endpoint: median survival time, dose: 32.0 mg/kg/injection, schedule: Q01DX009 (ip), vehicle: other) 120 % of control; (endpoint: median survival time, dose: 39.0 mg/kg/injection, schedule: Q01DX001 (sc), vehicle: carboxymethylcellulose (CMC)) 295 % of control; (endpoint: median survival time, dose: 39.0 mg/kg/injection, schedule: Q01DX Z (oral), vehicle: carboxymethylcellulose (CMC)) 157 % of control; (endpoint: median survival time, dose: 39.0 mg/kg/injection, schedule: Q07DX Z (sc), vehicle: carboxymethylcellulose (CMC)) 750 % of control; (endpoint: median survival time, dose: 65.0 mg/kg/injection, schedule: Q01DX001 (sc), vehicle: carboxymethylcellulose (CMC)) 355 % of control. The T/C (endpoint: median survival time, dose: 65.0 mg/kg/injection, schedule: Q07DX Z (sc), vehicle: carboxymethylcellulose (CMC)) is 330 % of control and the T/C (endpoint: median survival time, dose: 108.0 mg/kg/injection, schedule: Q01DX001 (sc), vehicle: carboxymethylcellulose (CMC)) was 750 % of control.
Take `CSc1ncnc2nc[nH]c12`: the T/C is, setting by setting: (endpoint: median survival time, dose: 38.9 mg/kg/injection, schedule: Q01DX Z (sc), vehicle: methylcellulose (MC)) 95 % of control; (endpoint: median survival time, dose: 64.8 mg/kg/injection, schedule: Q01DX Z (sc), vehicle: methylcellulose (MC)) 105 % of control; under setting [1], 110 % of control; under setting [2], 100 % of control.
Take `CN(N=O)C(N)=O`: the T/C runs as follows: (endpoint: median survival time, dose: 0.75 mg/kg/injection, schedule: Q01DX009 (ip), vehicle: saline) 100 % of control; (endpoint: median survival time, dose: 1.5 mg/kg/injection, schedule: Q01DX009 (ip), vehicle: saline) 100 % of control; (endpoint: median survival time, dose: 3.0 mg/kg/injection, schedule: Q01DX009 (ip), vehicle: saline) 105 % of control; (endpoint: median survival time, dose: 6.0 mg/kg/injection, schedule: Q01DX009 (ip), vehicle: saline) 120 % of control; (endpoint: median survival time, dose: 14.0 mg/kg/injection, schedule: Q01DX Z (sc), vehicle: saline) 111 % of control; (endpoint: median survival time, dose: 23.0 mg/kg/injection, schedule: Q01DX Z (sc), vehicle: saline) 100 % of control and 111 % of control. Moreover, the T/C was 122 % of control (endpoint: median survival time, dose: 31.1 mg/kg/injection, schedule: Q01DX Z (sc), vehicle: saline); 155 % of control under setting [3]; 118 % of control (endpoint: median survival time, dose: 86.4 mg/kg/injection, schedule: Q01DX Z (sc), vehicle: saline); 118 % of control and 120 % of control under setting [4]; 109 % of control (endpoint: median survival time, dose: 144.0 mg/kg/injection, schedule: Q01DX Z (sc), vehicle: saline); 100 % of control and 120 % of control under setting [5].
With `CCS(=O)(=O)Nc1cccc(Nc2c3cccc(C)c3nc3c(C)cccc23)c1OC`, the T/C is, setting by setting: (endpoint: mean survival time, dose: 12.5 mg/kg/injection, schedule: Q01DX009 (sc), vehicle: Klucel (hydroxypropylcellulose) (HPC)) 105 % of control; (endpoint: mean survival time, dose: 25.0 mg/kg/injection, schedule: Q01DX009 (sc), vehicle: Klucel (hydroxypropylcellulose) (HPC)) 100 % of control; (endpoint: mean survival time, dose: 50.0 mg/kg/injection, schedule: Q01DX009 (sc), vehicle: Klucel (hydroxypropylcellulose) (HPC)) 104 % of control; (endpoint: mean survival time, dose: 100.0 mg/kg/injection, schedule: Q01DX009 (sc), vehicle: Klucel (hydroxypropylcellulose) (HPC)) 112 % of control.
As for `CCN(CC)CCNc1ccc(C)c2sc3ccccc3c(=O)c12` (tested in a mixture with another compound), the T/C is 100 % of control (endpoint: median survival time, dose: 39.0 mg/kg/injection, schedule: Q01DX Z (sc), vehicle: methylcellulose (MC)); 100 % of control (endpoint: median survival time, dose: 65.0 mg/kg/injection, schedule: Q01DX Z (sc), vehicle: methylcellulose (MC)); 100 % of control under setting [1]; 100 % of control under setting [2]; 111 % of control (endpoint: median survival time, dose: 200.0 mg/kg/injection, schedule: Q01DX Z (sc), vehicle: methylcellulose (MC)).
Turning to `CC1CCC(NC(=O)N(CCCl)N=O)CC1` (stereo not drawn), the T/C (endpoint: median survival time, dose: 5.0 mg/kg/injection, schedule: Q03HX008 (sc), vehicle: saline) was 322 % of control and 333 % of control; the T/C (endpoint: median survival time, dose: 6.25 mg/kg/injection, schedule: Q04DX008 (sc), vehicle: saline) is 681 % of control and 690 % of control; the T/C (endpoint: median survival time, dose: 12.5 mg/kg/injection, schedule: Q01DX001 (sc), vehicle: saline) is 120 % of control; the T/C (endpoint: median survival time, dose: 12.5 mg/kg/injection, schedule: Q04DX008 (sc), vehicle: saline) is 370 % of control and 403 % of control; the T/C (endpoint: median survival time, dose: 25.0 mg/kg/injection, schedule: Q04DX008 (sc), vehicle: saline) was 119 % of control and 120 % of control; the T/C (endpoint: median survival time, dose: 50.0 mg/kg/injection, schedule: Q04DX001 (sc), vehicle: saline) was 215 % of control and 257 % of control. The T/C (endpoint: median survival time, dose: 50.0 mg/kg/injection, schedule: Q04DX008 (sc), vehicle: saline) was 104 % of control and 105 % of control; the T/C (endpoint: median survival time, dose: 100.0 mg/kg/injection, schedule: Q04DX001 (sc), vehicle: saline) is 230 % of control; the T/C (endpoint: median survival time, dose: 200.0 mg/kg/injection, schedule: Q04DX001 (sc), vehicle: saline) is 120 % of control and 121 % of control; the T/C (endpoint: median survival time, dose: 400.0 mg/kg/injection, schedule: Q04DX001 (sc), vehicle: saline) is 150 % of control and 151 % of control.
With `COc1cc2cc3c4cc(OC)c(OC)cc4cc[n+]3c(C)c2cc1OC`, the T/C (endpoint: median survival time, dose: 100.0 mg/kg/injection, schedule: Q01DX009 (sc), vehicle: saline) was 97 % of control and 100 % of control; the T/C (endpoint: median survival time, dose: 200.0 mg/kg/injection, schedule: Q01DX009 (sc), vehicle: saline) is 97 % of control and 100 % of control; the T/C (endpoint: median survival time, dose: 400.0 mg/kg/injection, schedule: Q01DX009 (sc), vehicle: saline) is 99 % of control and 100 % of control; the T/C (endpoint: median survival time, dose: 800.0 mg/kg/injection, schedule: Q01DX009 (sc), vehicle: saline) was 100 % of control and 101 % of control; the T/C (endpoint: median survival time, dose: 1600.0 mg/kg/injection, schedule: Q01DX009 (sc), vehicle: saline) is 97 % of control and 100 % of control.
For `COc1ccc2c(Nc3ccc(NS(C)(=O)=O)cc3)c3ccccc3nc2c1`, the T/C (endpoint: mean survival time, dose: 6.25 mg/kg/injection, schedule: Q01DX009 (sc), vehicle: saline) was 109 % of control.
On to `[N-]=[N+]=CC(=O)NCC(=O)NN`, for which the T/C was 90 % of control under setting [3]; 100 % of control under setting [4]; 100 % of control under setting [5]; 100 % of control (endpoint: median survival time, dose: 300.0 mg/kg/injection, schedule: Q01DX Z (sc), vehicle: saline); 100 % of control (endpoint: median survival time, dose: 500.0 mg/kg/injection, schedule: Q01DX Z (sc), vehicle: saline); 107 % of control (endpoint: median survival time, dose: 833.0 mg/kg/injection, schedule: Q01DX Z (sc), vehicle: saline).
